Measurements as given in patent US6384080B1, “Anthranilic acid derivatives as inhibitors of the cGMP-phosphodiesterase” (Fujisawa Pharmaceutical Co., Ltd., priority 1998, dated 2002).
Counter-ions that a name gives are not always drawn.

Target: T1, human platelet PDE-V (Homo sapiens, UniProt O76074)
T1 construct: Human platelet cGMP-PDE was separated from other isozymes in human platelets; from tissue; host or cells: human platelets
Assay: cGMP-Phosphodiesterase (PDE) assay, enzymatic inhibitory test
Format: biochemical
Details: not given
Experimental: cGMP-Phosphodiesterase (PDE) Assay
Human platelet cGMP-PDE was separated from other isozymes in human platelets by a modification of the method of Thompson et. al. (see Cyclic Nucleotide Phosphodiesterase (PDE), in Methods of Enzymatic analysis, Vol 4, p127-234, 1984). In enzyme inhibition assays, the test compounds were dissolved in DMSO and then diluted with assay buffer (50 mM Tris-HCl, 0.077 mg/ml dithiothreitol and 10 mg/ml snake venom, 1 mM EGTA, pH 8.0), at final concentrations ranging from 10^−10 to 10^−6 M. Assays were performed at 0.1 μM substrate ([^3H]-cGMP) concentration, at 30° C. for 10 minutes using enzyme dilutions which gave 10-20% hydrolysis of substrate. Each assay was initiated by addition of substrate and terminated by addition of anion exchange resin (Dowex® 1-X8, 250 mg/mg) followed by centrifugation for 10 minutes (3000 rpm, at 4° C.). Radioactivity of supernatant (^3H-GMP) was assayed by liquid scintillation counting.

| Structure (SMILES) | IC50 [nM] |
| --- | --- |
| CC[C@H](CO)Nc1ccc([N+](=O)[O-])cc1C(=O)NCc1ccc(Cl)c([N+](=O)[O-])c1 [(R)-N-(4-Chloro-3-nitrobenzyl)-2-[1-(hydroxymethyl)propylamino]-5-nitrobenzamide] | < 10 |

Same assay, conditions: human platelet PDE-V; 0.1 μM [3H]-cGMP substrate, 30° C., 10 minutes; read-out: Inhibitory activity IC50

| IC50 [nM] | Structure (SMILES) |
| --- | --- |
| < 10 | COc1ccc(CNC(=O)c2cc(Br)ccc2NC2CCCC2)cc1Cl [5-bromo-N-(3-chloro-4-methoxybenzyl)-2-(cycloperitylamino)benzamide hydrochloride] |
| < 10 | O=C(NCc1ccc2c(c1)OCO2)c1cc([N+](=O)[O-])ccc1NC1CCNCC1 [5-nitro-2-(4-piperidinylamino)-N-(1,3-benzodioxol-5-ylmethyl)benzamide] |
| < 10 | C[C@H](CO)Nc1ccc([N+](=O)[O-])cc1C(=O)NCc1ccc(-c2ccccc2)cc1 [(R)-2-(2-Hydroxy-1-methylethyl)amino-5-nitro-N-(4-phenybenzyl)benzamide] |
| < 10 | COc1ccc(CNC(=O)c2cc([N+](=O)[O-])ccc2NC2CCCC2)c(Cl)c1 [N-(2-Chloro-4-methoxybenzyl)-2-(cyclopentyrlamino)-5-nitrobenzamide] |
| < 10 | COc1ccc(CNC(=O)c2cc([N+](=O)[O-])ccc2NC2CCNCC2)cc1OC [N-(3,4-Dimethoxybenzyl)-5-nitro-2-(4-piperidinylamino)benzamide] |
| < 10 | COc1ccc(CNC(=O)c2cc([N+](=O)[O-])ccc2NC2COC(C)(C)OC2)cc1OC [N-(3,4-dimethoxybenzyl)-2-(2,2-dimethyl-1,3-dioxan-5-ylamino)-5-nitrobenzamide] |
| < 10 | CCCNC(=O)N[C@H]1CC[C@H](Nc2ccc([N+](=O)[O-])cc2C(=O)NCc2ccc(OC)c(OC)c2)CC1 [N-(3,4-dimethoxybenzyl)-5-nitro-2-[trans-4-(3-propylureido)cyclohexylamino]benzamide] |
| < 10 | COc1ccc(CNC(=O)c2cc([N+](=O)[O-])ccc2NC(CO)CO)cc1F [N-(3-Fluoro-4-methoxybenzyl)-2-[2-hydroxy-1-(hydroxynethyl)ethylamino]-5-nitrobenzamide] |
| < 10 | Nc1ccc(CNC(=O)c2cc([N+](=O)[O-])ccc2NC2CCCC2)cc1 [N-(4-Aminobenzyl)-2-(cyclopentylamino)-5-nitrobenzamide] |
| < 10 | Nc1ccc(CNC(=O)c2cc([N+](=O)[O-])ccc2NC2CCCC2)c(Cl)c1 [N-(4-amino-2-chlorobenzyl)-2-(cyclopentylamino)-5-nitrobenzamide] |
| < 10 | O=C(NCc1cc2ccccc2s1)c1cc([N+](=O)[O-])ccc1N[C@H]1CC[C@@H](O)CC1 [N-(Benzo[b]thiophen-2-ylmethyl)-2-(cis-4-hydroxycyclohexylamino)-5-nitrobenzamide] |
| < 10 | O=C(NCc1ccccc1)c1cc([N+](=O)[O-])ccc1NC1CCC(O)C1 (centres unmarked) [N-Benzyl-2-(3-hydroxycyclopentylamino)-5-nitrobenzamide] |
| < 10 | O=C(NCc1ccccc1)c1cc([N+](=O)[O-])ccc1NC1CCC1 [N-Benzyl-2-(cyclobutylamino)-5-nitrobenzamide] |

Second part, the molecule before the results:

| Structure (SMILES) | IC50 [nM] |
| --- | --- |
| O=C(NCc1ccc2c(c1)OCO2)c1cc([N+](=O)[O-])ccc1NC1CCSCC1 [5-Nitro-N-(1,3-benzodioxol-5-ylmethyl)-2-(tetrahydro-2H-thiopyran-4-ylamino)benzamide] | < 10 |
| O=C1CCC(Nc2ccc([N+](=O)[O-])cc2C(=O)NCc2ccc3c(c2)OCO3)CC1 [5-nitro-2-(4-oxocyclohexylamino)-N-(1,3-benzodioxol-5-ylmethyl)benzamide] | < 10 |
| CC[C@H](CO)Nc1ccc([N+](=O)[O-])cc1C(=O)NCc1ccc2c(c1)OCO2 [(R)-2-(1-Ethyl-2-hydroxyethylamino)-5-nitro-N-(1,3-benzodioxol-5-ylmethyl)benzamide] | < 10 |
| COC(=O)[C@@H](C)Nc1ccc([N+](=O)[O-])cc1C(=O)NCc1ccc2c(c1)OCO2 [(R)-2-[1-(Methoxycarbonyl)ethylamino]-5-nitro-N-(1,3-benzodioxol-5-ylmethyl)benzamide] | < 10 |
| O=C(NCc1ccc2c(c1)OCO2)c1cc([N+](=O)[O-])ccc1N[C@@H]1CCOC1 [(R)-5-Nitro-2-(tetrahydro-3-furanylamino)-N-(1,3-benzodioxol-5-ylmethyl)benzamide] | < 10 |
| CC(C)[C@@H](CO)Nc1ccc([N+](=O)[O-])cc1C(=O)NCc1ccc2c(c1)OCO2 [(S)-2-[1-(Hydroxymethyl)-2-methylpropylamino]-5-nitro-N-(1,3-benzodioxol-5-ylmethyl)benzamide] | < 10 |
| CC[C@@H](CCl)Nc1ccc([N+](=O)[O-])cc1C(=O)NCc1ccc2c(c1)OCO2 [(S)-2-[1-(chloromethyl)propylamino]-5-nitro-N-(1,3-benzodioxol-5-ylmethyl)benzamide] | < 10 |
| COc1ccc(CNC(=O)c2cc([N+](=O)[O-])ccc2N[C@H](CO)CNC=O)cc1OC [(S)-N-(3,4-Dimethoxybenzyl)-2-[1-(formamidomethyl)-2-hydroxyethylamino]-5-nitrobenzamide] | < 10 |
| COc1ccc(Cl)c(CNC(=O)c2cc([N+](=O)[O-])ccc2N[C@H]2CC[C@@H](O)CC2)c1 [N-(2-Chloro-5-methoxybenzyl)-2-(cis-4-hydroxycyclohexylamino)-5-nitrobenzamide] | < 10 |
| O=C(NCc1ccccc1Cl)c1cc([N+](=O)[O-])ccc1NC1CCCC1 [N-(2-Chlorobenzyl)-2-cyclopentylamino-5-nitrobenzamide] | < 10 |
| O=C(NCc1ccc2c(c1)OCCO2)c1cc([N+](=O)[O-])ccc1N[C@H]1CC[C@H](O)CC1 [N-(3,4-Ethylenedioxybenzyl)-2-(trans-4-hydroxycyclohexylamino)-5-nitrobenzamide] | < 10 |
| COc1ccc(CNC(=O)c2cc([N+](=O)[O-])ccc2N[C@H]2CC[C@H](NC(=N)N)CC2)cc1OC [N-(3,4-dimethoxybenzyl)-2-(trans-4-guanidinocyclohexylamino)-5-nitrobenzamide hydrochloride] | < 10 |
| COc1ccc(CNC(=O)c2cc([N+](=O)[O-])ccc2NC2COC(=O)OC2)cc1OC [N-(3,4-dimethoxybenzyl)-5-nitro-2-(2-oxo-1,3-dioxan-5-ylamino)benzamide] | < 10 |
| COc1c(Cl)cc(CNC(=O)c2cc([N+](=O)[O-])ccc2N[C@H]2CC[C@H](O)CC2)cc1Cl [N-(3,5-Dichloro-4-methoxybenzyl)-2-(trans-4-hydroxycyclohexylamino)-5-nitrobenzamide] | < 10 |
| COc1ccc(CNC(=O)c2cc(C(F)(F)F)ccc2NC(CO)CO)cc1Cl [N-(3-Chloro-4-methoxybenzyl)-2-[2-hydroxy-1-(hydroxymethyl)ethylamino]-5-(trifluoromethyl)benzamide] | < 10 |
| O=C(NCc1cccc(Cl)c1)c1cc([N+](=O)[O-])ccc1NC1CCCC1 [N-(3-Chlorobenzyl)-2-(cyclopentylamino)-5-nitrobenzamide] | < 10 |
| O=C(NCc1ccc(Br)cc1)c1cc([N+](=O)[O-])ccc1NC1CCCC1 [N-(4-Bromobenzyl)-2-(cyclopentylamino)-5-nitrobenzamide] | < 10 |
| CCOc1cc(CNC(=O)c2cc([N+](=O)[O-])ccc2N[C@H]2CC[C@@H](O)CC2)ccc1Cl [N-(4-Chloro-3-ethoxybenzyl)-2-(cis-4-hydroxycyclohexylamino)-5-nitrobenzaride] | < 10 |
| O=C(NCc1ccc(Cl)cc1)c1cc([N+](=O)[O-])ccc1NC1CCCC1 [N-(4-Chlorobenzyl)-2-(cyclopentylamino)-5-nitrobenzamide] | < 10 |
| COc1cc(CNC(=O)c2cc([N+](=O)[O-])ccc2NC(CO)CO)ccc1OCC1CCC1 [N-(4-Cyclobutylmethoxy-3-methoxybenzyl)-2-[2-hydroxy-1-(hydroxymethyl)ethylamino]-5-nitrobenzamide] | < 10 |
| CCOc1ccc(CNC(=O)c2cc([N+](=O)[O-])ccc2N[C@H]2CC[C@@H](O)CC2)cc1OC [N-(4-Ethoxy-3-methoxybenzyl)-2-(cis-4-hydroxycyclohexylamino)-5-nitrobenzamide] | < 10 |
| CCOc1ccc(CNC(=O)c2cc([N+](=O)[O-])ccc2N[C@H]2CC[C@H](NC=O)CC2)cc1OC [N-(4-Ethoxy-3-methoxybenzyl)-2-(trans-4-formamidocyclohexylamino)-5-nitrobenzamide] | < 10 |
| O=C(NCc1cc2ccccc2o1)c1cc([N+](=O)[O-])ccc1N[C@H]1CC[C@@H](O)CC1 [N-(Benzofuran-2-ylmethyl)-2-(cis-4-hydroxycyclohexylamino)-5-nitrobenzamide] | < 10 |
| O=C(NCc1ccccc1)c1cc([N+](=O)[O-])ccc1NC1CCCCC1 [N-Benzyl-2-(cyclohexylamino)-5-nitrobenzamide] | < 10 |
| O=C(NCc1ccccc1)c1cc([N+](=O)[O-])ccc1NC1CC1 [N-Benzyl-2-(cyclopropylamino)-5-nitrobenzamide] | < 10 |
| O=C(NCc1nc2ccccc2[nH]1)c1cc([N+](=O)[O-])ccc1NC1CCCC1 [N-[(2-Benzimidazolyl)methyl]-2-(cyclopentylamino)-5-nitrobenzamide] | < 10 |
| O=C(NCC1CCCCC1)c1cc([N+](=O)[O-])ccc1N[C@H]1CC[C@@H](O)CC1 [N-cyclohexylmethyl-2-(cis-4-hydroxycyclohexylamino)-5-nitrobenzamide] | < 10 |
